Assay results taken from the NIST ThermoML archive (doi:10.1021/je900596d).

Conditions: 263.49 K, Liquid, Vibrating tube method

FC(F)=C(F)C(F)(F)F [hexafluoropropene]
Conditions | mass density [kg/m3]
1283.2 kPa | 1467.96
1321.2 kPa | 1468.22
1359 kPa | 1468.47
1389.9 kPa | 1468.56
1425.3 kPa | 1468.74
1461.6 kPa | 1468.94
1497.9 kPa | 1469.16
1539.1 kPa | 1469.32
1576.4 kPa | 1469.48
1610 kPa | 1469.68
1646.8 kPa | 1469.96
1683.2 kPa | 1470.1
1718.2 kPa | 1470.09
1769.7 kPa | 1470.55
1804.7 kPa | 1470.64
1839 kPa | 1470.88
1873.5 kPa | 1471.02
1912.3 kPa | 1471.22
1948.3 kPa | 1471.32
1983.7 kPa | 1471.42
2017.6 kPa | 1471.69
2077.4 kPa | 1472.02
2137.9 kPa | 1472.31
2195.3 kPa | 1472.62
2252 kPa | 1472.79
2309.6 kPa | 1473.18
2367.3 kPa | 1473.43
2430.6 kPa | 1473.71
2489.1 kPa | 1474.06
2551.6 kPa | 1474.23
2614.8 kPa | 1474.71
2675.4 kPa | 1474.88
2733.4 kPa | 1475.13
2790.5 kPa | 1475.34
2848.5 kPa | 1475.67
2905.6 kPa | 1475.93
2969.6 kPa | 1476.29
3029.8 kPa | 1476.52
3093.3 kPa | 1476.76
3152.2 kPa | 1477.08
3211.2 kPa | 1477.32
3270.4 kPa | 1477.64
3327.3 kPa | 1477.91
3384.6 kPa | 1478.13
3443.8 kPa | 1478.55
3501.1 kPa | 1478.67
3558.2 kPa | 1479.03
3616.7 kPa | 1479.25
3674.3 kPa | 1479.49
3737.9 kPa | 1479.79
3796.5 kPa | 1480.12
3856.1 kPa | 1480.36
3913.3 kPa | 1480.59
3976.1 kPa | 1480.92
4010.9 kPa | 1481.02
4071.8 kPa | 1481.39
4136 kPa | 1481.55
4197.2 kPa | 1481.92
4261.2 kPa | 1482.25
4322.1 kPa | 1482.4
4382.2 kPa | 1482.79
4447.1 kPa | 1482.98
4507.5 kPa | 1483.36
4568.4 kPa | 1483.61
4635.4 kPa | 1483.93
4696.7 kPa | 1484.25
4757 kPa | 1484.43
4816.4 kPa | 1484.73
4881.5 kPa | 1484.9
4946.3 kPa | 1485.39
5104.8 kPa | 1485.97
5190.1 kPa | 1486.45
5273.8 kPa | 1486.72
5369.3 kPa | 1487.1
5456.3 kPa | 1487.53
5538.4 kPa | 1487.84
5622.6 kPa | 1488.18
5711.1 kPa | 1488.61
5793.3 kPa | 1489.06
5877.9 kPa | 1489.31
5963.2 kPa | 1489.67
6047.6 kPa | 1490.11
6129.9 kPa | 1490.42
6210.8 kPa | 1490.7
6292.4 kPa | 1491.15
6372.6 kPa | 1491.45
6452.8 kPa | 1491.79
6538.6 kPa | 1492.18
6628.4 kPa | 1492.5
6710.5 kPa | 1492.84
6798.1 kPa | 1493.29
6878.8 kPa | 1493.62
6965.4 kPa | 1493.98
7052.5 kPa | 1494.32
7137.8 kPa | 1494.61
7224.6 kPa | 1495
7315.1 kPa | 1495.44
7400.9 kPa | 1495.77
7483.2 kPa | 1496.09
7573.2 kPa | 1496.53
7663 kPa | 1496.86
7746.1 kPa | 1497.24
7835.3 kPa | 1497.57
7920.3 kPa | 1497.86
8008.2 kPa | 1498.24
8089.2 kPa | 1498.57
8180.4 kPa | 1498.95
8262.3 kPa | 1499.34
8343 kPa | 1499.65
8431 kPa | 1499.96
8519.4 kPa | 1500.29
8604.9 kPa | 1500.75
8687 kPa | 1500.96
8773.6 kPa | 1501.36
8859.6 kPa | 1501.69
8940.8 kPa | 1502.04
9033.4 kPa | 1502.38
9121.4 kPa | 1502.79
9202.4 kPa | 1503.09
9288.6 kPa | 1503.44
9371.7 kPa | 1503.79
9460.9 kPa | 1504.15
9501.4 kPa | 1504.21
9543.4 kPa | 1504.4
9588.9 kPa | 1504.56
9629.7 kPa | 1504.74
9675.2 kPa | 1504.91
9717.5 kPa | 1505.02
9760.3 kPa | 1505.19
9806 kPa | 1505.39
9849.5 kPa | 1505.65
9893.1 kPa | 1505.74
9933.7 kPa | 1505.89
